In PubChem BioAssay AID1963833 (Molecular Pharmacology Branch, DTP, NCI, 2024):

System: 883617-216-R-J1-PDC complex spheroid viability
Assay: Anticancer human tumor 883617-216-R-J1-PDC patient-derived bladder carcinoma cell line growth inhibition [POLQ]
Details: for IC50: curve of first compound; for viability, T/C: stronger effect = lower value; active = viability on the fitted dose curve at most 10% of control; inactive = the rest
Procedure: Multicellular complex tumor spheroid response to Polymerase (POL) inhibitors (novobiocin, ART-558, RP6685) in combination with a variety of drugs and investigational agents in selected tumor cell lines
The POL inhibitors (novobiocin, ART-558, and RP6685) were evaluated both individually and in combination with standard of care and investigational anticancer small molecules within a complex spheroid model of solid tumors. . Complex spheroids include a stromal component modeled by human endothelial cells (HUVEC) and fibroblasts modeled by human mesenchymal stem cells (MSCs). The concentration ranges selected for each drug and investigational agent were based upon clinically achievable concentrations if the clinical Cmax of the agent was known.
Compounds. The drugs and investigational agents: novobiocin (NSC847541), ART-558 (NSC835418), RP-6685 (NSC848927), peposertib (NSC802822), ceralasertib (NSC780249), elimusertib (NSC800525), camonsertib (NSC841442), AZD-1390 (NSC803789), olaparib (NSC753686), talazoparib (NSC767125), rucaparib (NSC756644), sotorasib (NSC818433), MRTX-1133 (NSC836407), SN-38 (NSC673596), topotecan (NSC609699), epotoside (NSC141540), doxorubicin (NSC123127), gemcitabine (NSC613327), 5-fluorouracil (NSC19893), paclitaxel (NSC125973), vemurafenib (NSC761431), MSA-2 (NSC828583), SN-011 (NSC837082), adavosertib (NSC754352), prexasertib (NSC758257), carboplatin (NSC241240) and oxaliplatin (NSC266046), were obtained from the National Cancer Institute (NCI) Developmental Therapeutics Program Chemical Repository (21). The FDA-approved anticancer drug set is available from the Developmental Therapeutics Program at https://dtp.cancer.gov/organization/dscb/obtaining/. […] The stock solutions were prepared in dimethyl sulfoxide (DMSO, Sigma-Aldrich, St. Louis, MO, cat. D2650), except for the platinum compounds which were prepared in saline (Quality Biological, Gaithersburg, MD, cat. 114-055-101), at 800-fold the tested concentration and stored at -70 degrees C prior to their use. All drugs and investigational agents were tested over a range starting from a high concentration at or near the clinical Cmax and decreasing in half-log increments. If the clinical Cmax for an agent had not been determined, the highest concentration tested was 10 microM, except for SN-38, which was tested at a high concentration of 1 microM.
Cell Culture. All cells were maintained in an incubator at 37 degrees C and 5% CO2 with 95% humidity. The PDC lines were cultured according to standard operating procedures established by the NCI PDMR (https://pdmr.cancer.gov). Table 3 of the manuscript, lists the cell lines along with the number of the three cell types plated to form the mct-spheroids and media for tumor cell growth. After thawing, all PDC lines, except 997537-175-T-J1-PDC and 415267-285-R-J2-PDC, were cultured in Matrigel-coated flasks prepared with a working solution of 1X Ham's F-12 nutrient mix, without supplementation (Thermo Fisher Scientific, cat. 11765054), 100 U/mL penicillin-streptomycin (Thermo Fisher Scientific, cat. 15140122), and 2.5% Matrigel (Corning Inc., Corning, NY, cat. 354248) for the first three passages. The two PDC lines 997537-175-T-J1-PDC and 415267-285-R-J2-PDC were cultured on uncoated flasks. The 857933-349-R-J2-PDC line was cultured in 6C/Colon 1B media containing advanced DMEM/F-12 (Thermo Fisher Scientific, cat. 12634028), 10 mM HEPES (Thermo Fisher Scientific, cat. 15630080), 1X GlutaMAX supplement (Thermo Fisher Scientific, cat. 35050061), 0.1 mg/mL primocin (InvivoGen, San Diego, CA, cat. ant-pm-2), 10% defined fetal bovine serum, heat inactivated (HyClone Laboratories Inc., Logan, UT, cat. SH30070.03HI), 50% L-WRN conditioned media (ATCC, cat. CRL-3276), 1.25 mM N-Acetyl-L-cysteine (Sigma-Aldrich, cat. A9165), 10 mM nicotinamide (Sigma-Aldrich, cat. N0636), 1X B-27 supplement (Thermo Fisher Scientific, cat. 17504044), 1X N-2 supplement (Thermo Fisher Scientific, cat. […]
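Also: spheroids exposed to compounds for seven days before readout.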

COc1ccc([C@@H](O)c2cc(-c3ncnc4cc(N5CCOCC5)ccc34)c(F)cc2Cl)nn1 + Nc1ccc(C#CCN(C(=O)Cc2ncc(C(F)(F)F)cc2C(F)(F)F)c2ccc(F)cc2)nn1
2.8 µM: IC50 (second compound 0.1 µM)
2.66 µM: IC50 (second compound 0.316 µM)
2.81 µM: IC50 (second compound 0.0316 µM)
2.87 µM: IC50 (second compound 3.16 µM)
inactive: viability, T/C (second compound 0.0316 µM, first compound 0.0316 µM) 104% | viability, T/C (second compound 0.0316 µM, first compound 0.1 µM) 92.5% | viability, T/C (second compound 0.0316 µM, first compound 0.316 µM) 90.1% | viability, T/C (second compound 0.0316 µM, first compound 1 µM) 66.7% | viability, T/C (second compound 0.0316 µM, first compound 3.16 µM) 48% | viability, T/C (second compound 0.0316 µM, first compound 10 µM) 36.6% | viability, T/C (second compound 0.1 µM, first compound 0.0316 µM) 75.6% | viability, T/C (second compound 0.1 µM, first compound 0.1 µM) 97.9% | viability, T/C (second compound 0.1 µM, first compound 0.316 µM) 84.6% | viability, T/C (second compound 0.1 µM, first compound 1 µM) 63.2% | viability, T/C (second compound 0.1 µM, first compound 3.16 µM) 51.9% | viability, T/C (second compound 0.1 µM, first compound 10 µM) 33.1% | viability, T/C (second compound 0.316 µM, first compound 0.0316 µM) 108% | viability, T/C (second compound 0.316 µM, first compound 0.1 µM) 99.7% | viability, T/C (second compound 0.316 µM, first compound 0.316 µM) 84.3% | viability, T/C (second compound 0.316 µM, first compound 1 µM) 62.8% | viability, T/C (second compound 0.316 µM, first compound 3.16 µM) 49.8% | viability, T/C (second compound 0.316 µM, first compound 10 µM) 31.4% | viability, T/C (second compound 1 µM, first compound 0.0316 µM) 94.8% | viability, T/C (second compound 1 µM, first compound 0.1 µM) 89.3% | viability, T/C (second compound 1 µM, first compound 0.316 µM) 77.9% | viability, T/C (second compound 1 µM, first compound 1 µM) 68.2% | viability, T/C (second compound 1 µM, first compound 3.16 µM) 50% | viability, T/C (second compound 1 µM, first compound 10 µM) 35.9% | viability, T/C (second compound 3.16 µM, first compound 0.0316 µM) 96.3% | viability, T/C (second compound 3.16 µM, first compound 0.1 µM) 102% | viability, T/C (second compound 3.16 µM, first compound 0.316 µM) 90.8% | viability, T/C (second compound 3.16 µM, first compound 1 µM) 68.3% | viability, T/C (second compound 3.16 µM, first compound 3.16 µM) 50.6% | viability, T/C (second compound 3.16 µM, first compound 10 µM) 37.1% | viability, T/C (second compound 10 µM, first compound 0.0316 µM) 108% | viability, T/C (second compound 10 µM, first compound 0.1 µM) 103% | viability, T/C (second compound 10 µM, first compound 0.316 µM) 101% | viability, T/C (second compound 10 µM, first compound 1 µM) 75.5% | viability, T/C (second compound 10 µM, first compound 3.16 µM) 43.6% | viability, T/C (second compound 10 µM, first compound 10 µM) 32.6%
2.5 µM: IC50 (second compound 10 µM)
3.41 µM: IC50 (second compound 1 µM)
